Reference: ChEMBL document CHEMBL4831548, “Sesquiterpene Lactones from Sigesbeckia glabrescens Possessing Potent Anti-inflammatory Activity by Directly Binding to IKKα/β” (J Nat Prod, 2021)
The source made the active and inactive calls. The calls are words filed in the database; no cut-off is given here.

Assays:
[1] = system: RAW264.7; assay: Inhibition of LPS-induced NO production in mouse RAW264.7 cells preincubated for 2 hrs followed by LPS stimulation for 24 hrs by Griess reagent based assay; assay type: functional, cell-based
[2] = system: RAW264.7; assay: Cytotoxicity against mouse RAW264.7 cells assessed as effect on cell viability up to 20 uM measured after 24 hrs by CCK8 assay; assay type: cell-based; conditions: raw264.7, 24 h
[3] = system: RAW264.7; assay: Anti-inflammatory activity against LPS-stimulated mouse RAW264.7 cells assessed as decrease in IL-6 production at 3 uM preincubated for 2 hrs followed by LPS stimulation and measured after 24 hrs by ELISA assay; assay type: functional, cell-based; conditions: time 26.0 hrs
[4] = system: RAW264.7; assay: Inhibition of LPS-induced PGE2 production in mouse RAW264.7 cells at 3 uM preincubated for 2 hrs followed by LPS stimulation and measured after 24 hrs by ELISA assay; assay type: functional, cell-based; conditions: time 26.0 hrs
[5] = system: RAW264.7; assay: Anti-inflammatory activity against LPS-stimulated mouse RAW264.7 cells assessed as decrease in IL-1 beta production at 3 uM preincubated for 2 hrs followed by LPS stimulation and measured after 24 hrs by ELISA assay; assay type: functional, cell-based; conditions: time 26.0 hrs
[6] = system: RAW264.7; assay: Anti-inflammatory activity against LPS-stimulated mouse RAW264.7 cells assessed as decrease in TNF-alpha production at 3 uM preincubated for 2 hrs followed by LPS stimulation and measured after 24 hrs by ELISA assay; assay type: functional, cell-based; conditions: time 26.0 hrs
[7] = system: RAW264.7; assay: Inhibition of LPS-induced NO production in mouse RAW264.7 cells at 3 uM incubated for 2 hrs followed by LPS stimulation and measured after 24 hrs by Griess reagent based assay; assay type: functional, cell-based; conditions: time 26.0 hrs
[8] = system: RAW264.7; assay: Anti-inflammatory activity against LPS-stimulated mouse RAW264.7 cells assessed as decrease in IL-1 beta production at 0.75 to 3 uM preincubated for 2 hrs followed by LPS stimulation and measured after 24 hrs by ELISA assay; assay type: functional, cell-based; conditions: dose 0.75-3 µM, time 26.0 hrs
[9] = Covalent binding affinity to dithiothreitol assessed as compound-DTT adduct formation at 50 uM incubated for 30 mins by UPLC-MS analysis
[10] = system: RAW264.7; assay: Anti-inflammatory activity against LPS-stimulated mouse RAW264.7 cells assessed as decrease in TNF-alpha production at 0.75 to 3 uM preincubated for 2 hrs followed by LPS stimulation and measured after 24 hrs by ELISA assay; assay type: functional, cell-based; conditions: dose 0.75-3 µM, time 26.0 hrs
[11] = molecular target: T1, Inhibitor of nuclear factor kappa-B kinase subunit alpha/beta (Mus musculus) (UniProt Q60680+O88351); assay: Inhibition of IKKalpha/beta in LPS-stimulated mouse RAW264.7 cells assessed as inhibition of IkappaB alpha phosphorylation at 3 uM preincubated with DTT for 30 mins and later incubated with cells for 2 hrs followed by LPS stimulation for 5 mins by immunoblot anlaysis; conditions: time 155.0 min
[12] = molecular target: T1, Inhibitor of nuclear factor kappa-B kinase subunit alpha/beta (Mus musculus); assay: Inhibition of IKKalpha/beta in LPS-stimulated mouse RAW264.7 cells assessed as inhibition of NFkB p65 nuclear translocation at 3 uM preincubated for 2 hrs followed by LPS stimulation for 30 mins by immunoblotting assay; conditions: time 150.0 min
[13] = system: RAW264.7; assay: Inhibition of LPS-induced iNOS protein expression in mouse RAW264.7 cells at 0.75 to 3 uM preincubated for 2 hrs followed by LPS stimulation for 24 hrs by Western blot analysis; assay type: functional, cell-based; conditions: dose 0.75-3 µM, time 26.0 hrs
[14] = system: RAW264.7; assay: Inhibition of LPS-induced COX2 protein expression in mouse RAW264.7 cells at 0.75 to 3 uM preincubated for 2 hrs followed by LPS stimulation for 24 hrs by Western blot analysis; assay type: functional, cell-based; conditions: dose 0.75-3 µM, time 26.0 hrs
[15] = molecular target: c-Jun N-terminal kinase (Mus musculus) (UniProt Q91Y86+Q9WTU6+Q61831); assay: Inhibition of JNK phosphorylation in LPS-induced mouse RAW264.7 cells at 0.75 to 3 uM preincubated for 2 hrs followed by LPS stimulation and measured after 30 mins by immunoblotting assay; conditions: dose 0.75-3 µM, time 150.0 min
[16] = system: RAW264.7; assay: Inhibition of LPS-induced NO production in mouse RAW264.7 cells at 3 uM preincubated with DTT for 30 mins and later incubated with cells for 2 hrs followed by LPS stimulation for 24 hrs by Griess-reagent based assay; assay type: functional, cell-based; conditions: time 1590.0 min
[17] = system: RAW264.7; assay: Inhibition of ERK phosphorylation in LPS-induced mouse RAW264.7 cells at 0.75 to 3 uM preincubated for 2 hrs followed by LPS stimulation and measured after 30 mins by immunoblotting assay; conditions: dose 0.75-3 µM, time 150.0 min
[18] = system: RAW264.7; assay: Inhibition of LPS-induced PGE2 production in mouse RAW264.7 cells preincubated for 2 hrs followed by LPS stimulation and measured after 24 hrs by ELISA assay; assay type: functional, cell-based; conditions: dose 0.75-3 µM, time 26.0 hrs
[19] = molecular target: T1, Inhibitor of nuclear factor kappa-B kinase subunit alpha/beta (Mus musculus); assay: Inhibition of IKKalpha/beta in LPS-stimulated mouse RAW264.7 cells assessed as decrease in IkappaB degradation at 3 uM preincubated for 2 hrs followed by LPS stimulation for 10 mins by immunoblotting assay; conditions: time 130.0 min
[20] = molecular target: MAP kinase p38 (Mus musculus) (UniProt P47811+O08911+Q9WUI1+Q9Z1B7); assay: Inhibition of p38 MAPK phosphorylation in LPS-induced mouse RAW264.7 cells at 0.75 to 3 uM preincubated for 2 hrs followed by LPS stimulation and measured after 30 mins by immunoblotting assay; conditions: dose 0.75-3 µM, time 150.0 min
[21] = molecular target: Inhibitor of NF-kappa-B kinase alpha/beta (Homo sapiens) (UniProt O14920+O15111); assay: Inhibition of IKKalpha/beta in human HEK293T cells assessed as reduction in thermal stability at 50 uM incubated for 30 mins followed by heating at temperature between 58 to 60 degC for 3 mins by CETSA analysis; assay type: cell-based; conditions: time 33.0 min
[22] = molecular target: T1, Inhibitor of nuclear factor kappa-B kinase subunit alpha/beta (Mus musculus); assay: Inhibition of IKKalpha/beta in LPS-stimulated mouse RAW264.7 cells assessed as inhibition of IkappaB alpha degradation at 3 uM preincubated with DTT for 30 mins and later incubated with cells for 2 hrs followed by LPS stimulation for 10 mins by immunoblot anlaysis; conditions: time 160.0 min
[23] = molecular target: T1, Inhibitor of nuclear factor kappa-B kinase subunit alpha/beta (Mus musculus); assay: Inhibition of IKKalpha/beta phosphorylation in LPS-induced mouse RAW264.7 cells incubated for 2 hrs followed by LPS stimulation and measured after 5 mins by immunoblotting assay; conditions: dose 0.75-3 µM, time 125.0 min
[24] = system: RAW264.7; assay: Anti-inflammatory activity against LPS-stimulated mouse RAW264.7 cells assessed as decrease in IL-6 production at 0.75 to 3 uM preincubated for 2 hrs followed by LPS stimulation and measured after 24 hrs by ELISA assay; assay type: functional, cell-based; conditions: dose 0.75-3 µM, time 26.0 hrs
[25] = molecular target: T1, Inhibitor of nuclear factor kappa-B kinase subunit alpha/beta (Mus musculus); assay: Inhibition of IKKalpha/beta in LPS-stimulated mouse RAW264.7 cells assessed as inhibition of IkappaB alpha phosphorylation preincubated for 2 hrs followed by LPS stimulation for 5 mins by immunoblot anlaysis; conditions: dose 0.75-3 µM, time 125.0 min

Sequence of c-Jun N-terminal kinase (Mus musculus) (Q61831 whole entry, looked up): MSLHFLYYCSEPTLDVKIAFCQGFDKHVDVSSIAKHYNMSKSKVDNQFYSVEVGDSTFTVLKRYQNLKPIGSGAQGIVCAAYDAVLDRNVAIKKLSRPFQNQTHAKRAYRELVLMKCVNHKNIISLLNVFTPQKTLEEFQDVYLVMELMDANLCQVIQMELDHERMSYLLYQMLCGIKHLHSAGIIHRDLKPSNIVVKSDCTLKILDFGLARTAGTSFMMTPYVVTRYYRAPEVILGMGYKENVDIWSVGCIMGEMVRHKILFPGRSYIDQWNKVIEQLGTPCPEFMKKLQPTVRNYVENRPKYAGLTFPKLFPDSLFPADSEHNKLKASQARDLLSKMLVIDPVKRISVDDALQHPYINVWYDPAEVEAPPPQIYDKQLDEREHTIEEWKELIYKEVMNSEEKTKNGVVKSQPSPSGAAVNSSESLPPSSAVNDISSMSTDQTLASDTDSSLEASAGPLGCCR
Sequence of c-Jun N-terminal kinase (Mus musculus) (Q91Y86 whole entry, looked up): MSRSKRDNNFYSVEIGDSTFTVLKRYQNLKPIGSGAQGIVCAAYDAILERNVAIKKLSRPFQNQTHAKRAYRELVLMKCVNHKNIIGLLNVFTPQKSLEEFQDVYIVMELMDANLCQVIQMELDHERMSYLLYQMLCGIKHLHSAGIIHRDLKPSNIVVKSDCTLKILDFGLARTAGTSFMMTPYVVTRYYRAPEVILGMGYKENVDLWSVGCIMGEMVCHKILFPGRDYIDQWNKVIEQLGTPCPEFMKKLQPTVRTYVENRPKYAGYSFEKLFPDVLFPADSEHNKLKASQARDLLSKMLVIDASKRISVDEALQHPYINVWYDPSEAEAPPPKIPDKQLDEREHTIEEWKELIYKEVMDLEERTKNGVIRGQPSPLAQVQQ
Sequence of c-Jun N-terminal kinase (Mus musculus) (Q9WTU6 whole entry, looked up): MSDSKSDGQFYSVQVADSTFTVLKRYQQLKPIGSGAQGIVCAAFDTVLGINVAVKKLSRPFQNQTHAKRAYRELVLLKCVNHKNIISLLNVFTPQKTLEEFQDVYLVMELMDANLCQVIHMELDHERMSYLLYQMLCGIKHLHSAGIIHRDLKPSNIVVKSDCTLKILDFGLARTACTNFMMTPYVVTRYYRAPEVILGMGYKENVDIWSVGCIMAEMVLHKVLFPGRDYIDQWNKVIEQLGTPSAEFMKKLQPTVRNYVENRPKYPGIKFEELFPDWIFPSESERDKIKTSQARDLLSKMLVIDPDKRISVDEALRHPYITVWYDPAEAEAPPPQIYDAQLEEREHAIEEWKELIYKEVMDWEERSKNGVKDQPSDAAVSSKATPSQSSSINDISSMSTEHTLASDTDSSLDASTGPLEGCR

SMILES | IC50 [1] [µM] | Activity [2] | also measured
C=C1C(=O)O[C@@H]2C[C@H](CO)CC/C=C(\COC(=O)C(C)C)C[C@@H](O)[C@@H]12 | > 20 | Non-Toxic | 
C=C1C(=O)O[C@@H]2/C=C3/CC/C=C(\[C@H](O)OC3)[C@H](OC)[C@@H](OC(=O)/C(C)=C\C)[C@@H]12 | > 20 | Non-Toxic | 
C=C1C(=O)O[C@@H]2/C=C(\CO)CC/C=C(\C=O)[C@H](OC)[C@@H](OC(=O)C(C)C)[C@@H]12 | > 20 | Non-Toxic | 
C=C1C(=O)O[C@@H]2C[C@H]3CC/C=C(/C[C@@H](OC(=O)/C(C)=C/C)[C@@H]12)[C@H](O)OC3 | > 20 | Non-Toxic | 
C=C1C(=O)O[C@H]2[C@H]1[C@H](OC(=O)/C(C)=C\C)[C@@H](OC)C(=O)[C@@H]1CC[C@@](O)(CO)[C@H]21 | > 20 | Non-Toxic | 
C=C1C(=O)O[C@@H]2C[C@H](CO)CC/C=C(\CO)C[C@@H](O)[C@@H]12 | > 20 | Non-Toxic | 
C=C1C(=O)O[C@@H]2/C=C(\CO)CC/C=C(\C=O)[C@H](OC(C)=O)[C@@H](OC(=O)/C(C)=C\C)[C@@H]12 | 16.5 | Non-Toxic | 
C=C1C(=O)O[C@@H]2/C=C(\CO)CCC=C(CO)[C@H](OC(C)=O)[C@@H](OC(=O)C(C)C)[C@@H]12 | 10.2 | Non-Toxic | 
C=C1C(=O)O[C@@H]2/C=C(\C)CC/C=C(\CO)C[C@@H](O)[C@@H]12 | > 20 | Non-Toxic | 
C=C1C(=O)O[C@@H]2/C=C3/CC/C=C(\[C@H](O)OC3)[C@H](O)[C@@H](OC(=O)/C(C)=C/C)[C@@H]12 | > 20 | Non-Toxic | 
C=C(C)C(=O)O[C@@H]1C=C(C=O)[C@@H]2CC[C@@](O)(CO)[C@@H]2[C@H]2OC(=O)C(=C)[C@@H]21 | 15.4 | Non-Toxic | 
C=C1C(=O)O[C@H]2[C@H]1[C@H](OC(=O)/C(C)=C/C)[C@@H](OC)C(=O)[C@@H]1CC[C@@](O)(CO)[C@H]21 | > 20 | Non-Toxic | 
C=C1C(=O)O[C@@H]2/C=C(\CO)CC/C=C(\C=O)[C@H](OC(C)=O)[C@@H](OC(=O)/C(C)=C/C)[C@@H]12 | > 20 | Non-Toxic | 

The next lines start with results.

IC50 [1] [µM] | SMILES | Activity [2] | also measured
3.5 | COc1cc(/C=C/C(=O)CC(=O)/C=C/c2ccc(O)c(OC)c2)ccc1O [CURCUMIN] |  | Activity [3]: Active; inhibition [4]: Active; Activity [5]: Active; Activity [6]: Active; inhibition [7]: Active
10 | C=C1C(=O)O[C@@H]2/C=C(\CO)CC/C=C(\CO)[C@H](OC(C)=O)[C@@H](OC(=O)/C(C)=C/C)[C@@H]12 | Non-Toxic | 
9.9 | C=C(C)C(=O)O[C@H]1[C@H]2C(=C)C(=O)O[C@@H]2/C=C(\CO)CC/C=C(\CO)[C@@H]1OC(C)=O | Non-Toxic | 
9.1 | C=C1C(=O)O[C@@H]2/C=C(\CO)CC/C=C(\C=O)[C@H](O)[C@@H](OC(=O)/C(C)=C\C)[C@@H]12 | Non-Toxic | 
6.9 | C=C1C(=O)O[C@@H]2C[C@H](CO)CC/C=C(\CO)C[C@@H](OC(=O)/C(C)=C/C)[C@@H]12 | Non-Toxic | 
7.9 | C=C1C(=O)O[C@@H]2/C=C(\CO)CC/C=C(\C=O)[C@H](OC)[C@@H](OC(=O)/C(C)=C\C)[C@@H]12 | Non-Toxic | 
5.6 | C=C1C(=O)O[C@@H]2C[C@H](CO)CC/C=C(\CO)C[C@@H](OC(=O)C=C(C)C)[C@@H]12 | Non-Toxic | 
2.3 | C=C1C(=O)O[C@@H]2C[C@H](CO)CC/C=C(\CO)C[C@@H](OC(=O)/C(C)=C\C)[C@@H]12 | Non-Toxic | 
9.3 | C=C1C(=O)O[C@@H]2/C=C(\CO)CC/C=C(\CO)[C@H](OC(C)=O)[C@@H](OC(=O)/C(C)=C\C)[C@@H]12 | Non-Toxic | 
3.4 | C=C1C(=O)O[C@@H]2C[C@H](CO)CCC=C(CO)C[C@@H](OC(=O)C(C)C)[C@@H]12 | Non-Toxic | 
2.7 | C=C(C)C(=O)O[C@@H]1C/C(CO)=C/CC[C@@H](CO)C[C@H]2OC(=O)C(=C)[C@H]12 | Non-Toxic | 
1.4 | C=C1C(=O)O[C@@H]2C[C@H](COC(=O)/C(C)=C\C)CC/C=C(\CO)C[C@@H](O)[C@@H]12 | Non-Toxic | inhibition ([1]; time 26.0 hrs): Dose-Dependent Effect; Activity [8]: Active; Activity [9]: Active; Activity [10]: Active; inhibition [11]: inactive; inhibition [12]: Active; inhibition [13]: Active; inhibition [14]: Active; inhibition [15]: inactive; inhibition [16]: inactive; inhibition [17]: inactive; inhibition [18]: Dose-Dependent Effect; inhibition [19]: Active; inhibition [20]: inactive; inhibition [21]: Active; inhibition [22]: inactive; inhibition [23]: Dose-Dependent Effect; Activity [24]: Active; inhibition [25]: Dose-Dependent Effect
